Assay results taken from PMC10184130.
Structures can show the parent of a compound that is named as a salt.

Key:
[1] = molecular target: T1, human C1s (Homo sapiens, UniProt P09871); assay: Human C1s enzyme assay; format: biochemical
T1 construct: Recombinant human C1s (358–688 aa) fused with both the N-terminal IgG signal peptide; IgG signal peptide (N); His tag (C); made in house; host or cells: HEK293 cells
T1 sequence (P09871 358-688): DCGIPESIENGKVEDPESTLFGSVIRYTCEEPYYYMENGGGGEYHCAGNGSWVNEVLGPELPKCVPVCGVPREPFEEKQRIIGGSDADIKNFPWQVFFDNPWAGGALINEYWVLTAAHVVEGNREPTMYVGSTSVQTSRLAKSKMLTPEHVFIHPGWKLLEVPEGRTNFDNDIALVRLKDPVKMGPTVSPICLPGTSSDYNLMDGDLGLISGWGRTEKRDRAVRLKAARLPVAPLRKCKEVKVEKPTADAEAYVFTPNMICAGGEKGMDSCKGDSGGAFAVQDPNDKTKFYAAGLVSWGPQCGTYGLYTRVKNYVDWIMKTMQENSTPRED
Protocol: Recombinant human C1s (358–688 aa) fused with both the N-terminal IgG signal peptide and the C-terminal His tag was expressed in HEK293 cells and purified. The assay was performed in a 384-well clear plate in a total volume of 20 μL of an assay buffer 1 [50 mmol/L Tris–HCl (pH 7.5), 150 mmol/L NaCl, 0.01% (w/v) Tween 20, and 0.01% (w/v) BSA]. Compounds were dissolved in DMSO and diluted to various concentrations. After 20 nL of compound solution was added to the plate, 10 μL of substrate solution containing a 250 μmol/L Z-Lys-SBzl peptide (Watanabe Chemical, Hiroshima, Japan) and 250 μmol/L DTNB (5,5′-dithiobis(2-nitrobenzoic acid)) (Sigma, MO, USA) was added to the plate. Then, 8 nmol/L human C1s was added to the plate and incubated at room temperature for 60 min. The absorbance at 405 nm was detected using an EnVision multilabel plate reader. […] The IC50 values were calculated using IDBS XLfit software.

[2] = likely due to the basic amidine moiety; cited from earlier work
[3] = molecular target: T2, human factor D (Homo sapiens, UniProt P00746); assay: Human factor D enzyme assay; format: biochemical
T2 construct: Recombinant human factor D (26–253 aa) fused with both the N-terminal IgG signal peptide; IgG signal peptide (N); His tag (C); made in house; host or cells: Expi293 cells
Description: Recombinant human factor D (26–253 aa) fused with both the N-terminal IgG signal peptide and the C-terminal His tag was expressed in Expi293 cells and purified. The human factor D assay condition was the same as for human MASP2, except that the enzyme solution concentration was 20 nmol/L and the substrate solution contained a 400 μmol/L Z-Lys-SBzl peptide and 50 μmol/L BES-Thio.

[4] = molecular target: T3, human thrombin (Homo sapiens, UniProt P00734); assay: Human thrombin enzyme assay; format: biochemical
T3 construct: purchased AnaSpec
Protocol: The human thrombin enzyme activity was determined by a SensoLyte 520 thrombin activity assay kit (AnaSpec, CA, USA). Purified human thrombin and the substrate were diluted in the assay buffer 1. After 20 nL of compound solution was added to a 384-well black plate, 3 μL of the 2 μmol/L 5-FAM/QXLTM 520 thrombin substrate was added to the plate. Then, 8 nmol/L human thrombin was added to the plate and incubated at room temperature for 60 min. The fluorescence at an excitation wavelength of 485 nm and an emission wavelength of 535 nm was detected using an EnVision multilabel plate reader.

[5] = molecular target: T4, human C1r (Homo sapiens, UniProt P00736); assay: Human C1r enzyme assay; format: biochemical
T4 construct: Recombinant human C1r (375–705 aa) fused with both the N-terminal IgG signal peptide; IgG signal peptide (N); His tag (C); made in house; host or cells: HEK293 cells
T4 sequence (P00736 375-705): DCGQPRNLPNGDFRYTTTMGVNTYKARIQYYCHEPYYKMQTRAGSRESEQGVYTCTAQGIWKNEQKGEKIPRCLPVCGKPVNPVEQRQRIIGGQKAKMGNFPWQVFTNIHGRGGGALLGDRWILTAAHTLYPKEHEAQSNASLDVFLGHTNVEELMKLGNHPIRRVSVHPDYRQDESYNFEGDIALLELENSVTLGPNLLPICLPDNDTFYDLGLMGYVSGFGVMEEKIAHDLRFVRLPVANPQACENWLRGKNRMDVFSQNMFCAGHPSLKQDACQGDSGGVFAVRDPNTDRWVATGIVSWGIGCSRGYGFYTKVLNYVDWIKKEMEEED
Description: Recombinant human C1r (375–705 aa) fused with both the N-terminal IgG signal peptide and the C-terminal His tag was expressed in HEK293 cells and purified. Human C1r assay conditions were the same as for human C1s, except that the enzyme solution concentration was 3 nmol/L and the substrate peptide was 250 μmol/L Z-Gly-Arg-SBzl (custom synthesis from Peptide Institute, Osaka, Japan) instead of Z-Lys-SBzl.

[6] = molecular target: T5, human MASP2 (Homo sapiens, UniProt O00187); assay: Human MASP2 enzyme assay; format: biochemical
T5 construct: Recombinant human MASP2 (298–686 aa) fused with both the N-terminal IgG signal peptide; IgG signal peptide (N); His tag (C); made in house; host or cells: Expi293 cells
Protocol: Recombinant human MASP2 (298–686 aa) fused with both the N-terminal IgG signal peptide and the C-terminal His tag was expressed in Expi293 cells and purified. The assay was performed in a 384-well black plate in a total volume of 6 μL of the assay buffer 1. After 20 nL of compound solution was added to the plate, 3 μL of substrate solution containing a 20 μmol/L Z-Gly-Arg-SBzl peptide and 20 μmol/L BES-Thio (FUJIFILM Wako, Osaka, Japan) was added to the plate. Then, 0.6 nmol/L human MASP2 was added to the plate and incubated at room temperature for 60 min. The fluorescence at an excitation wavelength of 485 nm and an emission wavelength of 535 nm was detected using an EnVision multilabel plate reader.

[7] = molecular target: human trypsin; assay: Human trypsin enzyme assay; format: biochemical
Protocol: Recombinant human trypsin (FUJIFILM Wako, Osaka, Japan) and the substrate were diluted in an assay buffer [50 mmol/L Tris–HCl (pH 7.5), 145 mmol/L NaCl, 2 mmol/L CaCl2, and 0.01% (w/v) Tween 20]. After 20 nL of compound solution was added to a 384-well black plate, 3 μL of substrate solution containing 25 μmol/L Boc-Phe-Ser-Arg-MCA (Peptide Institute, Osaka, Japan) was added to the plate. Then, 6 mU/mL human trypsin was added to the plate and incubated at room temperature for 60 min. The fluorescence at an excitation wavelength of 360 nm and an emission wavelength of 460 nm was detected using an EnVision multilabel plate reader.

[8] = PAMPA; format: in vitro ADME
Protocol: A PAMPA Evolution system (pION) was applied for the assay. After incubating the test compound (10 μmol/L) for 3 h at 25 °C, the permeation coefficient value was calculated with determining the test compound by LC/MS/MS.

[9] = molecular target: T6, Human Multidrug Resistance 1 (MDR-1) Expressing Cells (Homo sapiens, UniProt P08183); assay: Membrane permeability with human MDR-1 expressing cells; format: in vitro ADME; settings: supplementary csv
T6 construct: expressed in transfected cells
Protocol: (§1) The transcellular transport study was performed as reported previously.[31] In brief, the cells were grown in an HTS Transwell 96-well permeable support (pore size of 0.4 μm, 0.143 cm^2 surface area) with a polyethylene terephthalate membrane (Corning Life Sciences, Lowell, MA, USA) at a density of 1.125 × 10^5 cells/well. The cells were preincubated with M199 at 37 °C for 30 min. Subsequently, transcellular transport was initiated by the addition of M199 to apical compartments containing 1 μmol/L test compounds and terminated by the removal of each assay plate after 2 h. The aliquots in the opposite compartments were subjected to measurement for compound concentration by LC–MS/MS. Permeability was calculated using the permeated compound concentration.

[10] = molecular target: T7, MDR1 (P-gp) (Homo sapiens, UniProt P08183); assay: as above; format: in vitro ADME; settings: human; MDR1-expressing cells, 1 μmol/L, 2 h
T7 construct: expressed in transfected cells
Protocol: as §1

[11] = 95% confidence intervals in parentheses

T5 sequence (O00187 298-686): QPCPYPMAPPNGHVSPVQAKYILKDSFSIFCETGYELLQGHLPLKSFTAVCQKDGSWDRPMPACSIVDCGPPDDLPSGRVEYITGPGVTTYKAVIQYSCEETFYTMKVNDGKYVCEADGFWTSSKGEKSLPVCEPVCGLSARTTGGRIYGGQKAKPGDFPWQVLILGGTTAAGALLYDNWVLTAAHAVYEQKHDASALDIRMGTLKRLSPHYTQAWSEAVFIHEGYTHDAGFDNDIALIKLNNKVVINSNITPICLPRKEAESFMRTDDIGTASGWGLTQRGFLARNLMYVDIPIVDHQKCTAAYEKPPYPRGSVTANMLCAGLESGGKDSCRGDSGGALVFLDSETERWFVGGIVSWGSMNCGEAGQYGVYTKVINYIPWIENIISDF
T2 sequence (P00746 26-253): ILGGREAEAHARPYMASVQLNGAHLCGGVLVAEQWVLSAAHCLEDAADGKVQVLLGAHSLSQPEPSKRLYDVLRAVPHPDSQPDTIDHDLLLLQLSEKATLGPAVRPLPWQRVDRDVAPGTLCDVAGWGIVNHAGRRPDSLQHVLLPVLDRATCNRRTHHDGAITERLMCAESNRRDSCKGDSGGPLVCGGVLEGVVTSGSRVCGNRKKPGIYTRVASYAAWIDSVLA

| IC50 [1, 11] | SMILES | other results |
| --- | --- | --- |
| 560 nM | Cc1cccc(N2CCN(c3ccc4c(N)nncc4c3)CC2)c1 [Compound 5e, 6-[4-(3-Methylphenyl)piperazin-1-yl]phthalazin-1-amine] | – |
| 6700 nM | Cc1ccc(N2CCN(c3ccc4c(N)nncc4c3)CC2)cc1 [Compound 5f, 6-[4-(4-Methylphenyl)piperazin-1-yl]phthalazin-1-amine] | – |
| 370 nM | Nc1nncc2cc(N3CCN(c4cccc(F)c4)CC3)ccc12 [Compound 5g, 6-[4-(3-Fluorophenyl)piperazin-1-yl]phthalazin-1-amine] | – |
| 390 nM | Nc1nncc2cc(N3CCN(c4cccc(Cl)c4)CC3)ccc12 [Compound 5h, 6-[4-(3-Chlorophenyl)piperazin-1-yl]phthalazin-1-amine Trifluoroacetic Acid Salt] | – |
| 1400 nM | COc1cccc(N2CCN(c3ccc4c(N)nncc4c3)CC2)c1 [Compound 5i, 6-[4-(3-Methoxyphenyl)piperazin-1-yl]phthalazin-1-amine] | – |
| 1400 nM | N#Cc1cccc(N2CCN(c3ccc4c(N)nncc4c3)CC2)c1 [Compound 5j, 3-[4-(1-Aminophthalazin-6-yl)piperazin-1-yl]benzonitrile] | – |
| 7.1 nM | Cc1cc([C@H]2CN(c3ccc4c(N)nncc4c3)CCN2c2cccc(F)c2)no1.O=C(O)C(F)(F)F [Compound (R)-7, 6-[(3R)-4-(3-Fluorophenyl)-3-(5-methyl-1,2-oxazol-3-yl)piperazin-1-yl]phthalazin-1-amine Trifluoroacetic Acid Salt] | Papp at 3 h, 10 μmol/L ([8]; PAMPA, pH 7.4): 1.9 ×10⁻⁶ cm/s; PAMPA at pH 7.4 (nm/sec) ([8]; supplementary csv): 19 nm/sec; MDR1 (A to B) [9]: 3 nm/s; Papp A→B at 2 h, 1 μmol/L [10]: 0.3 ×10⁻⁶ cm/s |

More lines, now with the values behind:

| SMILES | IC50 [1, 11] | other results |
| --- | --- | --- |
| C[C@@H]1CN(c2ccc3c(N)nncc3c2)CCN1c1cccc(F)c1 [(R)-6, 6-[(3R)-4-(3-Fluorophenyl)-3-methylpiperazin-1-yl]phthalazin-1-amine] | 820 nM | – |
| C[C@H]1CN(c2ccc3c(N)nncc3c2)CCN1c1cccc(F)c1 [(S)-6, 6-[(3S)-4-(3-Fluorophenyl)-3-methylpiperazin-1-yl]phthalazin-1-amine] | 170 nM | – |
| Cc1cc([C@@H]2CN(c3cc(F)c4c(N)nncc4c3)CCN2c2cccc(F)c2)no1 [(S)-8, 8-Fluoro-6-[(3S)-4-(3-fluorophenyl)-3-(5-methyl-1,2-oxazol-3-yl)piperazin-1-yl]phthalazin-1-amine] | > 300000 nM | – |
| CSc1sc(C(=N)N)cc1S(=O)(=O)c1cccc(-c2c(C)cccc2NC(=O)CCCS(C)(=O)=O)c1 [Compound 1] | – | in vivo pharmacokinetics (PK) properties [2]: poor |
| Cc1ccc(C(=O)N2CCN(c3ccc4c(N)nccc4c3)CC2)cc1 [Compound 4b, [4-(1-Aminoisoquinolin-6-yl)piperazin-1-yl](4-methylphenyl)methanone] | 96000 nM | – |
| Cc1ccc(C(=O)N2CCN(c3ccc4c(N)nncc4c3)CC2)cc1 [Compound 4c, [4-(1-Aminophthalazin-6-yl)piperazin-1-yl](4-methylphenyl)methanone] | 2500 nM | – |
| Cc1ccc(C(=O)N2CCN(c3ccc4cnncc4c3)CC2)cc1 [Compound 4d, (4-Methylphenyl)[4-(phthalazin-6-yl)piperazin-1-yl]methanone] | > 300000 nM | – |
| Cc1ccccc1C(=O)N1CCN(c2ccc3c(N)nncc3c2)CC1 [Compound 4e, [4-(1-Aminophthalazin-6-yl)piperazin-1-yl](2-methylphenyl)methanone] | – | IC50 [3]: > 30000 nM; IC50 [4]: > 30000 nM; IC50 [5]: > 30000 nM; IC50 [6]: > 30000 nM; IC50 ([1]; supplementary csv): 4500 nM; IC50 [7]: > 30000 nM |
| Nc1nncc2cc(N3CCN(C(=O)c4ccccc4)CC3)ccc12 [Compound 4f, [4-(1-Aminophthalazin-6-yl)piperazin-1-yl](phenyl)methanone] | 5100 nM | – |
| Nc1nncc2cc(N3CCN(c4ccccc4)CC3)ccc12 [Compound 5a, 6-(4-Phenylpiperazin-1-yl)phthalazin-1-amine Trifluoroacetic Acid Salt] | 580 nM | – |
| Nc1nncc2cc(N3CCC(c4ccccc4)CC3)ccc12 [Compound 5b, 6-(4-Phenylpiperidin-1-yl)phthalazin-1-amine Trifluoroacetic Acid Salt] | 4200 nM | – |
| Nc1nncc2cc(C3CCN(c4ccccc4)CC3)ccc12 [Compound 5c, 6-(1-Phenylpiperidin-4-yl)phthalazin-1-amine] | > 30000 nM | – |
| Cc1ccccc1N1CCN(c2ccc3c(N)nncc3c2)CC1 [Compound 5d, 6-[4-(2-Methylphenyl)piperazin-1-yl]phthalazin-1-amine Trifluoroacetic Acid Salt] | 1200 nM | – |
